Test results as given in ChEMBL document CHEMBL1148075, “Hamacanthins A and B, new antifungal bis indole alkaloids from the deep-water marine sponge, Hamacantha sp” (1994).
Converted amounts (≈) assume the structure as drawn.

Legend:
Format in all cases: functional
Candida albicans = assay: Antifungal activity against Candida albicans ATCC 44506 after 24 hrs by broth microdilution method; details: ATCC 44506, 24 h
Cryptococcus neoformans = assay: Antifungal activity against Cryptococcus neoformans ATCC 32045 after 48 hrs by broth microdilution method; details: ATCC 32045, 48 h
Bacillus subtilis = assay: Antimicrobial activity against Bacillus subtilis ATCC 6633 after 24 hrs by broth microdilution method; details: ATCC 6633, 24 h

O=C1N[C@@H](c2c[nH]c3cc(Br)ccc23)CN=C1c1c[nH]c2cc(Br)ccc12 [HAMACANTHIN A]
MIC (Candida albicans): 1.6 µg/mL (≈ 3.29 µM) | MIC (Cryptococcus neoformans): 3.1 µg/mL (≈ 6.38 µM) | MIC (Bacillus subtilis): 3.1 µg/mL (≈ 6.38 µM)

O=C1NC[C@H](c2c[nH]c3cc(Br)ccc23)N=C1c1c[nH]c2cc(Br)ccc12 [HAMACANTHIN B]
MIC (Candida albicans): 6.2 µg/mL (≈ 12.8 µM) | MIC (Cryptococcus neoformans): 6.2 µg/mL (≈ 12.8 µM) | MIC (Bacillus subtilis): 1.6 µg/mL (≈ 3.29 µM)
